From patent publication US7521418B2, “Use of a polyene macrolide antifungal agent in combination with a glycopeptide antibacterial agent” (Theravance, Inc., priority 2003, dated 2009) come the findings set out here.

The assay has as its system G. candidum ATCC 62231. Put plainly: Checkerboard MIC assay, FICI. Type of assay: cell-based, Geotricium candidum. Particulars: combination with Compound 1. The source says: The following assay was used to determine the minimum inhibitory concentration (MIC) and fractional inhibitory concentration index (FICI) for combinations of an antifungal agent and a glycopeptide antibacterial agent. This assay and methods for calculating FICI are well known in the art. See, for example, Eliopoulos, E. G. and R. Moellering, Jr. “Antimicrobial Combinations” in Antibiotics in Laboratory Medicine, edited by V. Lorian, 4th Ed., Williams & Wilkins, Baltimore, MD, pp. 330-396 (1996); […] et al., Antimicrobial Agents and Chemotherapy 47(4):1416-1418 (2003); or […] et al., Antimicrobial Agents and Chemotherapy 46(10):3323-3326 (2002). […] The MIC of the glycopeptide antibacterial agent determined from this experiment was used in FIC calculations. […]

Regarding `C[C@@H]1[C@H](O)[C@@H](C)/C=C/C=C/C=C/C=C/C=C/C=C/C=C/[C@H](O[C@@H]2O[C@H](C)[C@@H](O)[C@H](N)[C@@H]2O)C[C@@H]2O[C@](O)(C[C@@H](O)C[C@@H](O)[C@H](O)CC[C@@H](O)C[C@@H](O)CC(=O)O[C@H]1C)C[C@H](O)[C@H]2C(=O)O` [Amphotericin B], the FICI is on record as 0.63.

For the molecule `C[C@@H]1[C@H](O)[C@@H](C)/C=C/C=C/CC/C=C/C=C/C=C/C=C/C(O[C@H]2O[C@H](C)[C@@H](O)[C@H](N)[C@@H]2O)CC2O[C@](O)(CC(O)C(O)CCC(O)CC(O)CC(O)CC(=O)O[C@H]1C)CC(O)C2C(=O)O` (some centres unmarked) [Nystatin], the FICI was 0.31.
